Test results reported in patent publication US20250230193A1, “CYCLIC COMPOUND HAVING SELECTIVE KRAS INHIBITORY EFFECT ON HRAS AND NRAS” (CHUGAI SEIYAKU KABUSHIKI KAISHA, priority 2022, published 2025).
Where a SMILES comes first, the peptide text is derived from it. Bridges are numbered along the chain shown (N, C = ends). [ ]: non-standard residue; d: D form. The star is where a group is joined. hPhe(3-Cl-4-CF3) = N[C@@H](CCc1ccc(C(F)(F)F)c(Cl)c1)C(=O)O; NPrPhe(4-CF3) = CCCN[C@@H](Cc1ccc(C(F)(F)F)cc1)C(=O)O; NMeGly(cPent) = CN[C@H](C(=O)O)C1CCCC1; Pro(4,4-F2) = O=C(O)[C@@H]1CC(F)(F)CN1; NMeD = CN[C@@H](CC(=O)O)C(=O)O; NMeL = CN[C@@H](CC(C)C)C(=O)O; Pip = O=C(O)[C@@H]1CCCCN1; Morpholide = C1CN(*)CCO1; NMeA = CN[C@@H](C)C(=O)O; Ac5c = NC1(C(=O)O)CCCC1; Aze = O=C(O)[C@@H]1CCN1; Ac4c = NC1(C(=O)O)CCC1; Sar = CNCC(=O)O

Columns and labels:
[1] = target: GDP-bound HRAS wild-type protein (Homo sapiens, UniProt P01112); test: Binding to HRAS by surface plasmon resonance (SPR), Single Cycle Kinetics; conditions: SPR; for HRAS/KRAS (ratio of KD value with respect to HRAS to KD value with respect to KRAS): GDP-bound HRAS wild-type vs GDP-bound KRAS wild-type
[2] = target: GDP-bound NRAS wild-type protein (Homo sapiens, UniProt P01111); test: Binding to NRAS by surface plasmon resonance (SPR), Single Cycle Kinetics; conditions: SPR; for NRAS/KRAS (ratio of KD value with respect to NRAS to KD value with respect to KRAS): GDP-bound NRAS wild-type vs GDP-bound KRAS wild-type
Chain of GDP-bound NRAS wild-type protein (P01111 whole entry): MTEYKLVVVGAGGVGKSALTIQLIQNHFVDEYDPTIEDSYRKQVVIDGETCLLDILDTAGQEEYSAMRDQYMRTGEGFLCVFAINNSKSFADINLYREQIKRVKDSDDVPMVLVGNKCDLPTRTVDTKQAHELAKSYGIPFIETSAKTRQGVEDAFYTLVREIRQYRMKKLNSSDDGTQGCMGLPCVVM

Chain of GDP-bound HRAS wild-type protein (P01112 whole entry): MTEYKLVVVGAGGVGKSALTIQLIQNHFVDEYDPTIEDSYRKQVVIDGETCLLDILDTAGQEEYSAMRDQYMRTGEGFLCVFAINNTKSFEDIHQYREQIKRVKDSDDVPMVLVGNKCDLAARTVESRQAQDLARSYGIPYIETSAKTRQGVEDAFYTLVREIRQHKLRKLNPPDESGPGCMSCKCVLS

For `CCO[C@@H]1C[C@H]2C(=O)NC3(CCC3)C(=O)N(C)[C@@H](C3CCCC3)C(=O)N(C)[C@H](C(=O)N3CCOCC3)CC(=O)N(C)[C@@H](CC(C)C)C(=O)N[C@@H]([C@@H](C)CC)C(=O)N(C)CC(=O)N(C)[C@H]3CCCCCN(C3=O)[C@@H](Cc3ccc4ccsc4c3)C(=O)N(C)CC(=O)N[C@@H](CCc3cc(F)c(C(F)(F)F)c(F)c3)C(=O)N2C1` [PP0921], the “HRAS/KRAS (ratio of KD value with respect to HRAS to KD value with respect to KRAS)” value ([1]; KD ratio) was “B (a compound having 3 or more and less than 10 is denoted as B)” and the “NRAS/KRAS (ratio of KD value with respect to NRAS to KD value with respect to KRAS)” value ([2]; KD ratio) was “B (a compound having 3 or more and less than 10 is denoted as B)”.

For `CCCO[C@H](C)[C@@H]1NC(=O)[C@H](CC(C)C)N(C)C(=O)C[C@@H](C(=O)N(C)CC)N(C)C(=O)[C@H](C2CCCC2)N(C)C(=O)C2(CC(C)(C)C2)NC(=O)[C@@H]2C[C@H](C)CN2C(=O)[C@H](CCc2ccc(C(F)(F)F)c(OC)c2)NC(=O)CN(C)C(=O)[C@H](Cc2ccc(C)cc2)N2CC/C=C\C[C@@H](C2=O)N(C)C(=O)CN(C)C1=O` [PP2416], the “HRAS/KRAS (ratio of KD value with respect to HRAS to KD value with respect to KRAS)” value [1] was “B (a compound having 3 or more and less than 10 is denoted as B)” and the “NRAS/KRAS (ratio of KD value with respect to NRAS to KD value with respect to KRAS)” value [2] was “A (a compound having 10 or more and less than 20 is denoted as A)”.

For `CCO[C@@H]1C[C@H]2C(=O)NC3(CCC3)C(=O)N(C)[C@@H](C(CC)CC)C(=O)N(C)[C@H](C(=O)N(C)C)CC(=O)N(C)[C@@H](CC(C)C)C(=O)N[C@@H]([C@@H](C)CC)C(=O)N(C)CC(=O)N(C)[C@H]3C/C=C\CCN(C3=O)[C@@H](Cc3ccc(C(F)(F)F)cc3)C(=O)N(C)CC(=O)N[C@@H](CCc3cc(F)c(C(F)(F)F)c(F)c3)C(=O)N2C1` [PP1201], the “HRAS/KRAS (ratio of KD value with respect to HRAS to KD value with respect to KRAS)” value ([1]; KD ratio) was “A (a compound having 10 or more and less than 20 is denoted as A)” and the “NRAS/KRAS (ratio of KD value with respect to NRAS to KD value with respect to KRAS)” value ([2]; KD ratio) was “AA (a compound having 20 or more is denoted as AA)”.

In the case of `CCO[C@@H]1C[C@H]2C(=O)NC3(CCC3)C(=O)N(C)[C@@H](C3CCCC3)C(=O)N(C)[C@H](C(=O)N3CCOCC3)CC(=O)N(C)[C@@H](CC(C)C)C(=O)N[C@@H]([C@@H](C)CC)C(=O)N(C)CC(=O)N(C)[C@H]3CCCCCN(C3=O)[C@@H](Cc3ccc(F)cc3Cl)C(=O)N(C)CC(=O)N[C@@H](CCc3cc(F)c(C(F)(F)F)c(F)c3)C(=O)N2C1` [PP0918], the “HRAS/KRAS (ratio of KD value with respect to HRAS to KD value with respect to KRAS)” value ([1]; KD ratio) is reported as “B (a compound having 3 or more and less than 10 is denoted as B)” and the “NRAS/KRAS (ratio of KD value with respect to NRAS to KD value with respect to KRAS)” value ([2]; KD ratio) is reported as “B (a compound having 3 or more and less than 10 is denoted as B)”.

For `CC[C@H](C)[C@@H]1NC(=O)[C@H](CC(C)C)N(C)C(=O)C[C@@H](C(=O)N2CCCC2)N(C)C(=O)[C@H](C2CCCC2)N(C)C(=O)C2(CCCC2)NC(=O)[C@@H]2CCCN2C(=O)[C@H](CCc2cc(F)c(C(F)(F)F)c(F)c2)NC(=O)CN(C)C(=O)[C@H](Cc2ccc(C(F)(F)F)cc2)N2CCCCC[C@@H](C2=O)N(C)C(=O)CN(C)C1=O` [PP0509], the “HRAS/KRAS (ratio of KD value with respect to GDP-bound HRAS wild-type protein to KD value with respect to KRAS)” value ([1]; KD ratio HRAS/KRAS) was “B (a compound having 3 or more and less than 10 is denoted as B)” and the “NRAS/KRAS (ratio of KD value with respect to GDP-bound NRAS wild-type protein to KD value with respect to KRAS)” value ([2]; KD ratio NRAS/KRAS) was “B (a compound having 3 or more and less than 10 is denoted as B)”.

For `CCCN1C(=O)[C@@H]2CCN2C(=O)[C@H](C)N(C)C(=O)[C@H]([C@@H](C)CC)NC(=O)[C@H](CC(C)C)N(C)C(=O)C[C@@H](C(=O)N2CCOCC2)N(C)C(=O)[C@H](C2CCCC2)N(C)C(=O)C2(CCCC2)NC(=O)[C@@H]2CCCCN2C(=O)[C@H](CCc2ccc(C(F)(F)F)c(Cl)c2)NC(=O)CN(C)C(=O)[C@@H]1Cc1ccc(C(F)(F)F)cc1` [PP0284] ([NMeL]I[NMeA][Aze][NPrPhe(4-CF3)][Sar][hPhe(3-Cl-4-CF3)][Pip][Ac5c][NMeGly(cPent)][NMeD]-Morpholide; lactam N-11), the “HRAS/KRAS (ratio of KD for GDP-bound HRAS wild-type to KD for KRAS)” value ([1]; KD ratio HRAS/KRAS) was “B (a compound having 3 or more and less than 10 is denoted as B)” and the “NRAS/KRAS (ratio of KD for GDP-bound NRAS wild-type to KD for KRAS)” value ([2]; KD ratio NRAS/KRAS) was “C (A compound having a KD ratio of 0.1 or more and less than 3 is denoted as C)”.

With `CCCN1C(=O)CN(C)C(=O)[C@@H]2CCN2C(=O)[C@H]([C@@H](C)CC)NC(=O)[C@H](CC(C)C)N(C)C(=O)C[C@@H](C(=O)N(C)C)N(C)C(=O)[C@H](C2CCCC2)N(C)C(=O)C2(CCC2)NC(=O)[C@@H]2CC(F)(F)CN2C(=O)[C@H](CCc2ccc(C(F)(F)F)c(Cl)c2)NC(=O)CN(C)C(=O)[C@@H]1Cc1ccc(C(F)(F)F)cc1` [PP0432] ([NMeL]I[Aze][Sar][NPrPhe(4-CF3)][Sar][hPhe(3-Cl-4-CF3)][Pro(4,4-F2)][Ac4c][NMeGly(cPent)][NMeD]-NMe2; lactam N-11) the “HRAS/KRAS (ratio of KD value with respect to GDP-bound HRAS wild-type protein to KD value with respect to KRAS)” value ([1]; KD ratio HRAS/KRAS) was “B (a compound having 3 or more and less than 10 is denoted as B)” and the “NRAS/KRAS (ratio of KD value with respect to GDP-bound NRAS wild-type protein to KD value with respect to KRAS)” value ([2]; KD ratio NRAS/KRAS) was “B (a compound having 3 or more and less than 10 is denoted as B)”.
